Source: patent US7858796B2, “Chemical compounds” (Glaxo Group Limited, priority 2004, dated 2010)

System: human monocyte stimulated cytokine production (TNF-α)
Test: Monocyte Assay (LPS-stimulated TNF-α production)
Format: cell-based
Conditions: human CD14+ monocytes, 200 ng/mL LPS, 24 hrs, TNF-α by ELISA
Description: Effect of IKK-β inhibition on human monocyte stimulated cytokine production was assessed as follows: Monocytes were isolated from heparinized whole blood by Ficoll gradient, followed by purification of CD14+ cells using MACS magnetic cell separation beads. Isolated monocytes were then adhered to 96-well culture plates at 1×10^6 cells/mL in RPMI 1640 10% FBS (JRH Biosciences, Lenexa Kans.) for 2 h. to further enrich the monocyte population. The media was then removed, cells washed once with RPMI 1640, and 0.125 mL RPMI 1640 10% FBS was added to the wells. Test compounds are added to the wells 30 minutes prior to stimulation with a final vehicle concentration of 0.1% DMSO. Monocytes were activated by the addition of 200 ng/mL endotoxin (LPS; E. coli serotype 026:B6) (Sigma, St. Louis, Mo.) and incubated for 24 hrs at 37 C. Cell-free supernates were analyzed by ELISA for TNF-α using Pharmingen matched pair Abs. Viability of the cells was determined by10% trypan blue exclusion.

SMILES	IC50 [µM]
NCCS(=O)(=O)N1CCC(c2c[nH]c3c(C(N)=O)cc(-c4ccccc4)cc23)CC1 [Example 1, 3-{1-[(2-aminoethyl)sulfonyl]-4-piperidinyl}-5-phenyl-1H-indole-7-carboxamide]	< 10
CN(C)CCS(=O)(=O)N1CCC(c2c[nH]c3c(C(N)=O)cc(-c4ccccc4)cc23)CC1 [Example 2, 3-(1-{[2-(dimethylamino)ethyl]sulfonyl}-4-piperidinyl)-5-phenyl-1H-indole-7-carboxamide]	< 10
CN(C)CCCS(=O)(=O)N1CCC(c2c[nH]c3c(C(N)=O)cc(-c4ccccc4)cc23)CC1 [Example 3, 3-(1-{[3-(dimethylamino)propyl]sulfonyl}-4-piperidinyl)-5-phenyl-1H-indole-7-carboxamide]	< 10
CN1CCN(CCCS(=O)(=O)N2CCC(c3c[nH]c4c(C(N)=O)cc(-c5ccccc5)cc34)CC2)CC1 [Example 4, 3-(1-{[3-(4-methyl-1-piperazinyl)propyl]sulfonyl}-4-piperidinyl)-5-phenyl-1H-indole-7-carboxamide]	< 10
NC(=O)c1cc(-c2ccccc2)cc2c(C3CCN(S(=O)(=O)CCCN4CCCCC4)CC3)c[nH]c12 [Example 5, 5-phenyl-3-(1-{[3-(1-piperidinyl)propyl]sulfonyl}-4-piperidinyl)-1H-indole-7-carboxamide]	< 10
NC(=O)c1cc(-c2ccccc2)cc2c(C3CCN(S(=O)(=O)CCCN4CCOCC4)CC3)c[nH]c12 [Example 6, 3-(1-{[3-(4-morpholinyl)propyl]sulfonyl}-4-piperidinyl)-5-phenyl-1H-indole-7-carboxamide]	< 10
NC(=O)c1cc(-c2ccccc2)cc2c(C3CCN(S(=O)(=O)CCCN4CCCC4)CC3)c[nH]c12 [Example 7, 5-phenyl-3-(1-{[3-(1-pyrrolidinyl)propyl]sulfonyl}-4-piperidinyl)-1H-indole-7-carboxamide]	< 10
NC(=O)c1cc(-c2ccsc2)cc2c(C3CCN(S(=O)(=O)CCCN4CCCC4)CC3)c[nH]c12 [Example 8, 3-(1-{[3-(1-pyrrolidinyl)propyl]sulfonyl}-4-piperidinyl)-5-(3-thienyl)-1H-indole-7-carboxamide]	< 10
CN(C)CCCS(=O)(=O)N1CCC(c2c[nH]c3c(C(N)=O)cc(-c4ccsc4)cc23)CC1 [Example 9, 3-(1-{[3-(dimethylamino)propyl]sulfonyl}-4-piperidinyl)-5-(3-thienyl)-1H-indole-7-carboxamide]	< 10
CN(C)CCCS(=O)(=O)N1CCC(c2c[nH]c3c(C(N)=O)cc(-c4cccs4)cc23)CC1 [Example 10, 3-(1-{[3-(dimethylamino)propyl]sulfonyl}-4-piperidinyl)-5-(2-thienyl)-1 indole-7-carboxamide]	< 10
NC(=O)c1cc(-c2cccs2)cc2c(C3CCN(S(=O)(=O)CCCN4CCCC4)CC3)c[nH]c12 [Example 11, 3-(1-{[3-(1-pyrrolidinyl)propyl]sulfonyl}-4-piperidinyl)-5-(2-thienyl)-1 indole-7-carboxamide]	< 10
CC1CCCN1CCCS(=O)(=O)N1CCC(c2c[nH]c3c(C(N)=O)cc(-c4cccs4)cc23)CC1 (stereo not shown) [Example 12, 3-(1-{[3-(2-methyl-1-pyrrolidinyl)propyl]sulfonyl}-4-piperidinyl)-5-(2-thienyl)-11 indole-7-carboxamide]	< 10
NC(=O)c1cc(-c2cccs2)cc2c(C3CCN(S(=O)(=O)CCCNC4CCCC4)CC3)c[nH]c12 [Example 13, 3-(1-{[3-(cyclopentylamino)propyl]sulfonyl}-4-piperidinyl)-5-(2-thienyl)-1H-indole-7-carboxamide]	< 10
NC(=O)c1cc(-c2cccs2)cc2c(C3CCN(S(=O)(=O)CCCN4CCC(O)CC4)CC3)c[nH]c12 [Example 14, 3-(1-{[3-(4-hydroxy-1-piperidinyl)propyl]sulfonyl}-4-piperidinyl)-5-(2-thienyl)-1-indole-7-carboxamide]	< 10
NC(=O)c1cc(-c2cccs2)cc2c(C3CCN(S(=O)(=O)CCNC4CCCC4)CC3)c[nH]c12 [Example 15, 3-(1-{[2-(cyclopentylamino)ethyl]sulfonyl}-4-piperidinyl)-5-(2-thienyl)-1H-indole-7-carboxamide]	< 10
NC(=O)c1cc(-c2ccsc2)cc2c(C3CCN(S(=O)(=O)CCN4CCCC4)CC3)c[nH]c12 [Example 16, 3-(1-{[2-(1-pyrrolidinyl)ethyl]sulfonyl}-4-piperidinyl)-5-(3-thienyl)-1H-indole-7-carboxamide]	< 10
CN(C)CCS(=O)(=O)N1CCC(c2c[nH]c3c(C(N)=O)cc(-c4ccsc4)cc23)CC1 [Example 17, 3-(1-{[2-(dimethylamino)ethyl]sulfonyl}-4-piperidinyl)-5-(3-thienyl)-1H-indole-7-carboxamide]	< 10
NC(=O)c1cc(-c2ccsc2)cc2c(C3CCN(S(=O)(=O)CCNC4CCCC4)CC3)c[nH]c12 [Example 18, 3-(1-{[2-(cyclopentylamino)ethyl]sulfonyl}-4-piperidinyl)-5-(3-thienyl)-11 indole-7-carboxamide]	< 10
NC(=O)c1cc(-c2ccsc2)cc2c(C3CCN(S(=O)(=O)CCNC4CCC(O)CC4)CC3)c[nH]c12 (stereo not shown) [Example 19, 3-[1-({2-[(4-hydroxycyclohexyl)amino]ethyl}sulfonyl)-4-piperidinyl]-5-(3-thienyl)-1H-indole-7-carboxamide]	< 10
NC(=O)c1cc(-c2ccccc2)cc2c(C3CCN(S(=O)(=O)CCO)CC3)c[nH]c12 [Example 20, 3-{1-[(2-hydroxyethyl)sulfonyl]-4-piperidinyl}-5-phenyl-1H-indole-7-carboxamide]	< 10
NC(=O)c1cc(-c2ccc(Cl)s2)cc2c(C3CCN(S(=O)(=O)CCCN4CCCC4)CC3)c[nH]c12 [Example 21, 5-(5-chloro-2-thienyl)-3-(1-{[3-(1-pyrrolidinyl)propyl]sulfonyl}-4-piperidinyl)-1H-indole-7-carboxamide]	< 10
CNCCS(=O)(=O)N1CCC(c2c[nH]c3c(C(N)=O)cc(-c4ccccc4)cc23)CC1 [Example 22, 3-(1-{[2-(methylamino)ethyl]sulfonyl}-4-piperidinyl)-5-phenyl-1H-indole-7-carboxamide]	< 10
NC(=O)c1cc(-c2ccc(CO)s2)cc2c(C3CCN(S(=O)(=O)CCCN4CCCC4)CC3)c[nH]c12 [Example 63, 5-[5-(hydroxymethyl)-2-thienyl]-3-(1-{[3-(1-pyrrolidinyl)propyl]sulfonyl}-4-piperidinyl)-1H-indole-7-carboxamide]	< 10
NC(=O)c1cc(-c2ccc(CN3CCCC3)s2)cc2c(C3CCN(S(=O)(=O)CCCN4CCCC4)CC3)c[nH]c12 [Example 64, 5-[5-(1-pyrrolidinylmethyl)-2-thienyl]-3-(1-{[3-(1-pyrrolidinyl)propyl]sulfonyl}-4-piperidinyl)-1H-indole-7-carboxamide]	< 10
CNCc1ccc(-c2cc(C(N)=O)c3[nH]cc(C4CCN(S(=O)(=O)CCCN5CCOCC5)CC4)c3c2)s1 [Example 65, 5-{5-[(methylamino)methyl]-2-thienyl}-3-(1-{[3-(4-morpholinyl)propyl]sulfonyl}-4-piperidinyl)-1H-indole-7-carboxamide]	< 10
